Source: publication PMC7413254 (Nature Communications, 2020)
Read-outs that look alike come from different tables or passages of the source.

Key:
[1] = system: non-expressing oocytes; assay: cells; format: cell-based, Xenopus laevis; conditions: Xenopus laevis, total [3H]CQ transport; for inhibition at 500 µM: [test solute] = 0.5 mM; for inhibition at 1000 µM: [test solute] = 1 mM; for inhibition at 2000 µM: [test solute] = 2 mM
Outline: (§1)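 ND96, pH 5.5, 1.5 h, 27.5 °C; uptake direction acidic outside → oocyte cytosol, mimicking efflux from digestive vacuole. Ice-cold wash stop, 10% SDS lysis, scintillation counting. Ten oocytes/treatment, ≥4 independent experiments.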

[2] = molecular target: T1, PfCRT^3D7 (Plasmodium falciparum, UniProt Q8IBZ9); assay: cell-based; format: cell-based; conditions: total [3H]CQ transport; for inhibition at 500 µM: [test solute] = 0.5 mM; for inhibition at 1000 µM: [test solute] = 1 mM; for inhibition at 2000 µM: [test solute] = 2 mM
T1 sequence (Q8IBZ9 59-398): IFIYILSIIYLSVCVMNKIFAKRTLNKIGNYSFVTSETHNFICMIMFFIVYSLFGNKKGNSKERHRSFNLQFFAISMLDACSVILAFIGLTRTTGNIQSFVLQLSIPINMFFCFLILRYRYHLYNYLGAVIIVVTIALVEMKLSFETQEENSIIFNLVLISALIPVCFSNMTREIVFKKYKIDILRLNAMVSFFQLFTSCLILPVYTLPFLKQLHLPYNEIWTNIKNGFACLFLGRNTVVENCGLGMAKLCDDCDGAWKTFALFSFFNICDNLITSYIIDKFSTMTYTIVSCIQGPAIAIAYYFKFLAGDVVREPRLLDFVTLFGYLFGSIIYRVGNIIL
Outline: as §1

[3] = molecular target: T2, PfCRT^Dd2 (Plasmodium falciparum, UniProt Q9N623, A220S/I356T/K76T/M74I/N326S/N75E/Q271E/R371I); assay: [3H]CQ uptake into Xenopus oocytes, cis-inhibition by unlabelled solute; format: cell-based
T2 sequence (Q9N623 whole entry A220S/I356T/K76T/M74I/N326S/N75E/Q271E/R371I): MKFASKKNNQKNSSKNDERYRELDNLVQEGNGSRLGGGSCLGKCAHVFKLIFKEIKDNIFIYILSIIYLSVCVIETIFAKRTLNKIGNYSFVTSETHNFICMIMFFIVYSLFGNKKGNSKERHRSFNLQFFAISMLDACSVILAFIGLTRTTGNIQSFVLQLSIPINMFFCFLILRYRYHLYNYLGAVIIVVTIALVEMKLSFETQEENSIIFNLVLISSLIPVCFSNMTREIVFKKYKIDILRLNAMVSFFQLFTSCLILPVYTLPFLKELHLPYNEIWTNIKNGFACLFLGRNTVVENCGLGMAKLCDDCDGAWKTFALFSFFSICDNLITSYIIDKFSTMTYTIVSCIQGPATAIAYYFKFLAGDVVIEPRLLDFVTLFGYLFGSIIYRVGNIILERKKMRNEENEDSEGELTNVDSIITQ
Outline: as §1

[4] = molecular target: T3, PfCRT^Ecu1110 (Plasmodium falciparum, UniProt Q9N623, A220S/I356L/K76T/N326D); assay: as above; format: cell-based
T3 sequence (Q9N623 whole entry A220S/I356L/K76T/N326D): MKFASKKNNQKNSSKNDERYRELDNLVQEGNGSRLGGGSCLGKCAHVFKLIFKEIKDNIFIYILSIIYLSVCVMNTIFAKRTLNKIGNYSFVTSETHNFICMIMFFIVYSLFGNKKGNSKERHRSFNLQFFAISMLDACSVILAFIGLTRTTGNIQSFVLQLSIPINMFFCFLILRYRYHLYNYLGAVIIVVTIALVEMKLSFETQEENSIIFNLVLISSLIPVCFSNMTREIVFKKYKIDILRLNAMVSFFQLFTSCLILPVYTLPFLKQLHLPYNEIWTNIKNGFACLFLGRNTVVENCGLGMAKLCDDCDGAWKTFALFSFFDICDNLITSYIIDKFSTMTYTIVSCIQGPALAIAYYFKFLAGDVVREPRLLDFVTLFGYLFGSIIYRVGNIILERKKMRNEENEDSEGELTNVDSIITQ
Outline: as §1

[5] = system: non-expressing oocytes; format: cell-based, Xenopus laevis; conditions: total [3H]CQ transport; for Uptake of [3H]CQ (% non-expressing oocyte control), trans-stimulation: non-expressing oocytes, normalised to the oocyte type control; for Uptake of [3H]CQ (% PfCRTDd2 control), trans-stimulation, non-expressing oocytes: mean ± SEM, SEM
Outline: (§2)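 Oocytes (ten per treatment, ≥4 independent frogs/days) were preloaded by injecting VF-6 in 25 nL ND96 at pH 5.0, 5.5, 6.0 or 7.0, or Na^+-free choline buffer, then uptake run 1.5 h, 27.5 °C, ND96 pH 5.5 by default. Internal concentrations assumed ~400 nL oocyte volume.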

[6] = molecular target: T1, PfCRT^3D7; assay: cell-based; format: cell-based
Outline: as §2

[7] = molecular target: T2, PfCRT^Dd2; assay: cell-based; format: cell-based; conditions: […]; for activity at 45000 µM: [test solute]i = 45 mM (30 mM for some solutes due to solubility)
Outline: as §2

[8] = molecular target: T3, PfCRT^Ecu1110; assay: cell-based; format: cell-based; conditions: […]
Outline: as §2

[9] = molecular target: T4, PfNT1 (Plasmodium falciparum, UniProt Q8IDM6); assay: cell-based; format: cell-based; conditions: for activity at 5000 µM: total [3H]CQ transport
T4 construct: expressed in transfected cells; host or cells: Xenopus laevis oocytes (stage V-VI), cRNA-injected
T4 sequence (Q8IDM6 whole entry): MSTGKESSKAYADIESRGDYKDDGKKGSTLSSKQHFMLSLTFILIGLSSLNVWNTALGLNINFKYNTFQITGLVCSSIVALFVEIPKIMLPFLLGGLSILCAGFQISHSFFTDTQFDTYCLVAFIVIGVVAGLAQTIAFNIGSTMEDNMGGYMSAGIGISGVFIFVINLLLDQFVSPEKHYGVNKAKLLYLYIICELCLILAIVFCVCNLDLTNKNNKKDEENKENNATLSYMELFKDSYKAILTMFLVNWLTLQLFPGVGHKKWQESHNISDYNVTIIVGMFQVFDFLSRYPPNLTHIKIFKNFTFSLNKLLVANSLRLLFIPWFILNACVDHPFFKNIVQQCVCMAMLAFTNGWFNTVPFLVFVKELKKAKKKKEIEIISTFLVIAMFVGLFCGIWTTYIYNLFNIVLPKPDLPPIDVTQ
Outline: as §2

[10] = system: PfCRT; assay: Influx of VF-6 via PfCRT into the oocyte, solutes tested as potential co-substrates; format: cell-based, Plasmodium falciparum; parameters: key: X: Compounds that have been tested as potential co-substrates but are not required for influx of VF-6 via PfCRT into the oocyte; conditions: X marks the solute
[11] = system: PfCRT; assay: Test of solutes as potential co-substrates for influx of VF-6 via PfCRT into the oocyte; format: cell-based, Plasmodium falciparum; parameters: key: X: Compounds that have been tested as potential co-substrates but are not required for influx of VF-6 via PfCRT into the oocyte; conditions: X = tested
[12] = Oocyte, mean ± SEM, SEM, read-out: Uptake of [3H]CQ (% PfCRTDd2 control), cis-inhibition, non-expressing oocytes
[13] = non-expressing oocytes, normalised to the oocyte type control, read-out: Uptake of [3H]CQ (% non-expressing oocyte control), cis-inhibition
[14] = PfCRT3D7 oocytes, normalised to the oocyte type control, read-out: Uptake of [3H]CQ (% PfCRT3D7 control), cis-inhibition
[15] = mean ± SEM, SEM, read-out: Uptake of [3H]CQ (% PfCRTDd2 control), cis-inhibition, PfCRT3D7
[16] = read-out: PfCRT-mediated [3H]CQ transport, cis-inhibition (% PfCRTDd2 control)
[17] = read-out: Uptake of [3H]CQ (% PfCRTDd2 control), cis-inhibition
[18] = read-out: Uptake of [3H]CQ (% PfCRTDd2 control), cis-inhibition, PfCRTDd2, SEM
[19] = read-out: [3H]CQ transport (% PfCRTDd2 control), cis-inhibition, PfCRTDd2, SEM
[20] = read-out: PfCRT-mediated [3H]CQ transport, cis-inhibition (% PfCRTEcu1110 control)
[21] = read-out: Uptake of [3H]CQ (% PfCRTDd2 control), cis-inhibition, PfCRTEcu1110, SEM
[22] = read-out: Uptake of [3H]CQ (% PfCRTEcu1110 control), cis-inhibition
[23] = read-out: [3H]CQ transport (% PfCRTEcu1110 control), cis-inhibition, PfCRTEcu1110, SEM

N[C@@H](CS)C(=O)O [L-cysteine]
inhibition at 500 µM [1, 12]: 2.1 ± 0.08%
inhibition at 1000 µM [1, 12]: 3.4 ± 0.01%
inhibition at 2000 µM [1, 12]: 2.3 ± 0.1%
inhibition at 500 µM [1, 13]: 99 ± 5.3%
inhibition at 1000 µM [1, 13]: 100 ± 4.6%
inhibition at 2000 µM [1, 13]: 99 ± 3.5%
inhibition at 500 µM [2, 14]: 99 ± 3.2%
inhibition at 1000 µM [2, 14]: 100 ± 3.6%
inhibition at 2000 µM [2, 14]: 99 ± 4.2%
inhibition at 500 µM [2, 15]: 3.4 ± 0.05%
inhibition at 1000 µM [2, 15]: 2.5 ± 0.05%
inhibition at 2000 µM [2, 15]: 3.1 ± 0.08%
inhibition at 500 µM [3, 16]: 94 ± 4.1%
inhibition at 1000 µM [3, 16]: 95 ± 3.6%
inhibition at 2000 µM [3, 16]: 95 ± 2.8%
inhibition at 500 µM [3, 17]: 97 ± 9.2%
inhibition at 2000 µM [3, 17]: 97 ± 3.1%
inhibition at 500 µM [3, 18]: 97 ± 9.2%
inhibition at 1000 µM [3, 18]: 96 ± 3.5%
inhibition at 2000 µM [3, 18]: 97 ± 3.1%
inhibition at 1000 µM [3, 19]: 95 ± 3.6%
inhibition at 2000 µM [3, 19]: 95 ± 2.8%
inhibition at 500 µM [4, 20]: 94 ± 1.6%
inhibition at 1000 µM [4, 20]: 87 ± 2.6%
inhibition at 2000 µM [4, 20]: 98 ± 4.5%
inhibition at 500 µM [4, 21]: 31 ± 1%
inhibition at 1000 µM [4, 21]: 29 ± 1.5%
inhibition at 2000 µM [4, 21]: 33 ± 1.4%
inhibition at 500 µM [4, 22]: 95 ± 4.2%
inhibition at 1000 µM [4, 22]: 89 ± 5.5%
inhibition at 2000 µM [4, 22]: 100 ± 7.1%
inhibition at 500 µM [4, 23]: 28 ± 1.1%
inhibition at 1000 µM [4, 23]: 26 ± 1.5%
inhibition at 2000 µM [4, 23]: 30 ± 1.7%
Uptake of [3H]CQ (% non-expressing oocyte control), trans-stimulation ([5]; [test solute]i = 5 mM): 98 ± 2.2 % non-expressing oocyte control
Uptake of [3H]CQ (% non-expressing oocyte control), trans-stimulation ([5]; [test solute]i = 45 mM (30 mM for some solutes due to solubility)): 100 ± 4.2 % non-expressing oocyte control
Uptake of [3H]CQ (% PfCRTDd2 control), trans-stimulation, non-expressing oocytes ([5]; [test solute]i = 5 mM (intracellular)): 3.1 ± 0.07 % PfCRTDd2 control
Uptake of [3H]CQ (% PfCRTDd2 control), trans-stimulation, non-expressing oocytes ([5]; [test solute]i = 45 mM (intracellular; 30 mM for some solutes due to solubility)): 2.2 ± 0.03 % PfCRTDd2 control
activity at 5000 µM ([6]; PfCRT3D7 oocytes, [test solute]i = 5 mM, total [3H]CQ transport, normalised to the oocyte type control, read-out: Uptake of [3H]CQ (% PfCRT3D7 control), trans-stimulation): 100 ± 2.4%
[3H]CQ transport (% PfCRT3D7 control), trans-stimulation, PfCRT3D7 ([6]; SEM): 0.3 ± 0.02 % PfCRT3D7 control
activity at 5000 µM ([6]; [test solute]i = 5 mM (intracellular), PfCRT3D7 oocytes, normalised to oocyte type control, read-out: PfCRT-mediated [3H]CQ transport, trans-stimulation (% PfCRT3D7 control)): 98 ± 3.1%
activity at 45000 µM ([6]; SEM, read-out: Uptake of [3H]CQ (% PfCRTDd2 control), trans-stimulation, PfCRT3D7): 3.2 ± 0.08%
activity at 45000 µM ([6]; read-out: PfCRT-mediated [3H]CQ transport, trans-stimulation (% PfCRT3D7 control)): 94 ± 4.4%
activity at 45000 µM ([6]; read-out: Uptake of [3H]CQ (% PfCRT3D7 control), trans-stimulation): 96 ± 3.5%
activity at 5000 µM ([6]; total [3H]CQ transport, [test solute]i = 5 mM (intracellular), mean ± SEM, SEM, read-out: Uptake of [3H]CQ (% PfCRTDd2 control), trans-stimulation, PfCRT3D7): 3.3 ± 0.05%
activity at 5000 µM ([7]; pH 5.5, read-out: PfCRT-mediated [3H]CQ transport, trans-stimulation (% PfCRTDd2 control), [test solute]i = 5 mM (intracellular), PfCRTDd2 oocytes, normalised to oocyte type control): 97 ± 2.6%
activity at 5000 µM ([7]; pH 5.5, read-out: Uptake of [3H]CQ (% PfCRTDd2 control), trans-stimulation, PfCRTDd2, total [3H]CQ transport, [test solute]i = 5 mM (intracellular), mean ± SEM, SEM): 99 ± 3.2%
activity at 5000 µM ([7]; pH 5.5, read-out: Uptake of [3H]CQ (% PfCRTDd2 control), trans-stimulation, PfCRTDd2 oocytes, [test solute]i = 5 mM, total [3H]CQ transport, normalised to the oocyte type control): 99 ± 3.2%
activity at 45000 µM ([7]; pH 5.5, read-out: Uptake of [3H]CQ (% PfCRTDd2 control), trans-stimulation, PfCRTDd2 oocytes, total [3H]CQ transport, normalised to the oocyte type control): 101 ± 3.7%
activity at 5000 µM ([7]; pH 5.5, read-out: [3H]CQ transport (% PfCRTDd2 control), trans-stimulation, PfCRTDd2, trans-stimulation, [test solute]i = 5 mM (injected), PfCRT-mediated component (background subtracted), mean ± SEM, SEM): 97 ± 2.6%
activity at 45000 µM ([7]; pH 5.5, read-out: [3H]CQ transport (% PfCRTDd2 control), trans-stimulation, PfCRTDd2, trans-stimulation, PfCRT-mediated component (background subtracted), mean ± SEM, SEM): 99 ± 4.5%
activity at 5000 µM ([8]; pH 5.5, read-out: PfCRT-mediated [3H]CQ transport, trans-stimulation (% PfCRTEcu1110 control), [test solute]i = 5 mM (intracellular), PfCRTEcu1110 oocytes, normalised to oocyte type control): 95 ± 3%
activity at 5000 µM ([8]; pH 5.5, read-out: Uptake of [3H]CQ (% PfCRTEcu1110 control), trans-stimulation, PfCRTEcu1110 oocytes, [test solute]i = 5 mM, total [3H]CQ transport, normalised to the oocyte type control): 97 ± 4.2%
activity at 45000 µM ([8]; pH 5.5, read-out: Uptake of [3H]CQ (% PfCRTEcu1110 control), trans-stimulation, PfCRTEcu1110 oocytes, [test solute]i = 45 mM (30 mM for some solutes due to solubility), total [3H]CQ transport, normalised to the oocyte type control): 100 ± 3.5%
activity at 5000 µM ([8]; read-out: Uptake of [3H]CQ (% PfCRTDd2 control), trans-stimulation, PfCRTEcu1110, total [3H]CQ transport, [test solute]i = 5 mM (intracellular), mean ± SEM, SEM): 35 ± 1.4%
activity at 45000 µM ([8]; read-out: Uptake of [3H]CQ (% PfCRTDd2 control), trans-stimulation, PfCRTEcu1110, total [3H]CQ transport, [test solute]i = 45 mM (intracellular; 30 mM for some solutes due to solubility), mean ± SEM, SEM): 36 ± 2.7%
activity at 5000 µM ([9]; PfNT1 oocytes, [test solute]i = 5 mM, normalised to the oocyte type control, read-out: Uptake of [3H]CQ (% PfNT1 control), trans-stimulation): 98 ± 3.7%
activity at 45000 µM ([9]; SEM, read-out: Uptake of [3H]CQ (% PfCRTDd2 control), trans-stimulation, PfNT1): 2.6 ± 0.05%
activity at 45000 µM ([9]; read-out: Uptake of [3H]CQ (% PfNT1 control), trans-stimulation): 99 ± 3.2%
activity at 5000 µM ([9]; [test solute]i = 5 mM (intracellular), mean ± SEM, SEM, read-out: Uptake of [3H]CQ (% PfCRTDd2 control), trans-stimulation, PfNT1): 2.6 ± 0.08%
Compounds that have been tested as potential co-substrates but are not required for influx of VF-6 via PfCRT into the oocyte [10]: X
Tested as potential co-substrate but not required for influx of VF-6 via PfCRT into the oocyte [11]: X
